Drawing on PMC9570478, “Purification, Biochemical and Kinetic Characterization of a Novel Alkaline sn-1,3-Regioselective Triacylglycerol Lipase from Penicillium crustosum Thom Strain P22 Isolated from Moroccan Olive Mill Wastewater” (International Journal of Molecular Sciences, 2022), this text covers pH-Stat titration for one molecule.

Test [1] concerns the target T1, Palatase 20000 L (Rhizomucor miehei, UniProt P19515).
T1 construct: commercial enzyme preparation (Novozymes)
T1 sequence (P19515 95-363): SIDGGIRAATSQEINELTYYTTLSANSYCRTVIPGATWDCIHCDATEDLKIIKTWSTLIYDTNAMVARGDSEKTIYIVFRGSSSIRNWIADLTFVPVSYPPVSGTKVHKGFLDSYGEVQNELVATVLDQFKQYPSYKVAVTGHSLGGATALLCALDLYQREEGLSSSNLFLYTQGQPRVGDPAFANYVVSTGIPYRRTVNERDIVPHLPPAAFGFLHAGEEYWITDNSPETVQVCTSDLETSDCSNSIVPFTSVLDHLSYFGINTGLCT
Nature of the test: pH-Stat titration. It is filed as biochemical. To be noted: commercial preparation; TC8 emulsion.

For test [2], the target named is T2, Lipolase (Thermomyces lanuginosus, UniProt O59952).
T2 construct: gene LIP; commercial enzyme preparation (Novozymes)
T2 sequence (O59952 23-291): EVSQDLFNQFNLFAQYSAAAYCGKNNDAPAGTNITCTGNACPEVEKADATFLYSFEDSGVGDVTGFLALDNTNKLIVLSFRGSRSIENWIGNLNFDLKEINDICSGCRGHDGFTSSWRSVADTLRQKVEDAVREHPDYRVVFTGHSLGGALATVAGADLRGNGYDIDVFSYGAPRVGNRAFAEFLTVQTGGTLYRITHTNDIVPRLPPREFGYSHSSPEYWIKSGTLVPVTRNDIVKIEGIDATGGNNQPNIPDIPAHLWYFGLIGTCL
Nature of the test: pH-Stat titration. It is filed as biochemical. To be noted: commercial preparation; TC8 emulsion.

`CCCCCCCC(=O)OCC(COC(=O)CCCCCCC)OC(=O)CCCCCCC` [TC8]: the pH-Stat titration entry in test [1] and in test [2] was “almost the same substrate specificity profile as PCrL under the same experimental conditions” throughout.
